Test results: patent publication US20110110979A1, “METHOD AND VACCINE FOR […] SPECIFIC IMMUNE RESPONSES” (Universite De Lausanne, priority 2008, published 2011)

Key:
[1] = target: HPV16 E749-57 peptide presented by H-2D^b (human papillomavirus type 16; mouse (C57BL/6)) (UniProt P01899)
[2] = target: HPV16 E749-57 peptide presented by H-2D^b (human papillomavirus type 16; mouse (C57BL/6)) (UniProt P01899); remark: listed apart in the source
[3] = system: E749-57-specific CD8 T cells; experiment: ex vivo IFN-γ ELISPOT after sc or i.n. immunization with E71-98 + adjuvants; format: in vivo, C57BL/6 mice; conditions: single 50 μg sc or i.n. dose, no adjuvant; 7 days after immunization
[4] = system: E7-specific CD8 cells; conditions: single dose HSp E7+poly IC followed by three consecutive daily doses of Poly IC alone; cited from earlier work
[5] = system: E749-57-specific CD8 T cells; experiment: ex vivo IFN-γ ELISPOT after E7 vaccination followed by ivag immunostimulant; format: in vivo, C57BL/6 mice; conditions: sc E71-98+CpG and HLT day 1; ivag immunostimulant day 6; analysis day 9

In the case of “E7-specific CD8 T cells from C57BL/6 mice vaccinated with E71-98 + adjuvants (PBMC, spleen, lymph no (cells without a defined receptor)”, the ex vivo IFN-γ ELISPOT (E7-specific IFN-γ secreting cells/10^5 cells) [1] is reported as 347 and the in vivo cytotoxicity assay (specific lysis of CFSE-labeled peptide-pulsed splenocytes) [2] is reported as 80%.
For “E71-98: complete synthetic E7 polypeptide (residues 1-98) of human papillomavirus type 16”, the “E7-specific CD8 T cell responses in PBMC” value [3] was “did not induce detectable E7-specific CD8 T cell responses”.
For “polyriboinosinic:polyribocytidylic acid [pI:C]”, the “numbers of E7-specific CD8 cells vs single dose of HspE7+poly IC” value [4] is listed as “did not elicit a significant increase” and the “E7-specific CD8 T cell responses in CV tissue vs ivag PBS” value [5] is listed as “strongly enhanced”.
